Reference: patent publication US20030040538A1, “Novel substituted tricyclic compounds” (priority 1999, published 2003)
Where a name gives a salt, the structure may show the parent alone.

Biological target: T1, human β3 (Homo sapiens, UniProt P13945)
T1 construct: the full length human β3 gene was obtained from a human genomic library; expressed in transfected cells; host or cells: CHO (Chinese hamster ovary) cells, pcDNA3 vector
Experiment: Human β3-agonist activities (cAMP in CHO cells transfected with human β3 gene)
Assay type: cell-based
Details: CHO cells expressing human β3; for EC50: cAMP quantitated with EIA kit after 30 minutes, read-out: human β3-agonist activity (ED50); for Emax: read-out: intrinsic activity as compared with Isoproterenol
Method: Human β3-Agonist Activities
Human β3-agonist activities were determined using CHO (Chinese hamster ovary) cells transfected with pcDNA3 (mfd. by Invitrogen) to which human β3 gene had been inserted. Human β3 fragment was first obtained from human adipose tissue cDNA (mfd. by Clonetech) by PCR using the primer of β3 (Krief, et al., J. Clin. Invest., 91, p. 344 (1993)). The human β3 fragment obtained was then used as a probe and then the full length human β3 gene was obtained from a human genomic library (mfd. by Clonetech).
The above cells were cultured in a Ham F-12 medium supplemented with 10% fetal bovine serum (mfd. by Dainippon Pharmaceutical), 400 μg/mL geneticin (Gibco BRL), 100 U/mL penicillin and 100 μg/mL streptomycin. After placing these cells (5×10^5) into a 6-well plate and culturing them for 24 hours, they were allowed to stand on a serum-free Ham F-12 medium for 2 hours. The compound was first dissolved in DMSO, repeatedly diluted by ten times with Ham F-12 supplemented with 1 mM isobutylmethylxanthine and 1 mM ascorbic acid to a final concentration of from 10^−5 to 10^−12 M, and then added to the cells.
After the cells were cultured for 30 minutes, the medium was removed followed by addition of 0.5 mL of an aqueous 1 N sodium hydroxide solution. The medium was allowed to stand for 20 minutes and then 0.5 mL of an aqueous 1 N acetic acid solution was added to the medium. The medium was stirred and centrifuged followed by quantitating cAMP with cAMP EIA kit (mfd. by Cayman). Isoproterenol was purchased from RBI (Research Biochemicals International).

[1] = cAMP, relative to Isoproterenol

T1 sequence (P13945 whole entry): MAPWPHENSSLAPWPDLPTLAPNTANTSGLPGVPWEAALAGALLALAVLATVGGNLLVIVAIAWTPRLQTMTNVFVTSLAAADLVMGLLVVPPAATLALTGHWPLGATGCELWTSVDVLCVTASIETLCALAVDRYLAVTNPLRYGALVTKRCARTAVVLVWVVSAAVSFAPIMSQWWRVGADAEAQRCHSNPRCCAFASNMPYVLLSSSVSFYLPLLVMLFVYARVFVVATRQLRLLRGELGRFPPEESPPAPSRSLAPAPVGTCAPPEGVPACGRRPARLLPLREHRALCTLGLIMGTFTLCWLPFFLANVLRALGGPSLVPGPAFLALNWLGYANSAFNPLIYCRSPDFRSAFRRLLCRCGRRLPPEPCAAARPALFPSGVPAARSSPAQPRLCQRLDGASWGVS

Compound `CS(=O)(=O)Nc1cccc([C@@H](O)CNCCOc2ccc3c(c2)[nH]c2cc(O)ccc23)c1` [Example 2, (R)-N-[3-[2-[2-(7-hydroxy-9H-carbazol-2-yloxy)ethylamino]-1-hydroxyethyl]phenyl]methanesulfonamide Hydrochloride] has an EC50 of 0.8 nM and an Emax [1] of 82%.

`CS(=O)(=O)Nc1cc([C@@H](O)CNCCOc2ccc3c(c2)[nH]c2cc(O)ccc23)ccc1Cl` [Example 3, (R)-N-[2-chloro-5-[2-[2-(7-hydroxy-9H-carbazol-2-yloxy)ethylamino]-1-hydroxyethyl]phenyl]methanesulfonamide Hydrochloride] was tested, and the EC50 was 1.5 nM and the Emax [1] was 75%.

Compound `CC(=O)Nc1ccc2c(c1)[nH]c1cc(OCCNC[C@H](O)c3cccc(NS(C)(=O)=O)c3)ccc12` [Example 8, (R)-N-[3-[2-[2-(7-acetamido-9H-carbazol-2-yloxy)-ethylamino]-1-hydroxyethyl]phenyl]methanesulfonamide Hydrochloride] has an EC50 of 0.35 nM and an Emax [1] of 47%.

For `CS(=O)(=O)Nc1cccc([C@@H](O)CNCCOc2ccc3c(c2)[nH]c2cc(N)ccc23)c1` [Example 9, (R)-N-[3-[2-[2-(7-amino-9H-carbazol-2-yloxy)ethylamino]-1-hydroxyethyl]phenyl]methanesulfonamide Dihydrochloride], the EC50 was 1 nM and the Emax [1] was 102%.

Compound `CC(C)(C)C(=O)Oc1ccc2c(c1)[nH]c1cc(OCCNCC(O)c3cccc(NS(C)(=O)=O)c3)ccc12` (stereo not drawn) [Example 10] has an EC50 of 2.4 nM and an Emax [1] of 112%.

In the case of `CCN(c1ccc2c(c1)[nH]c1cc(OCCNC[C@H](O)c3cccc(NS(C)(=O)=O)c3)ccc12)S(C)(=O)=O.Cl` [Example 33, (R)-N-[3-[2-[2-[7-(N′-ethyl-N′-methylsulfonylamino)-9H-carbazol-2-yloxy]ethylamino]-1-hydroxyethyl]phenyl]methanesulfonamide Hydrochloride], the EC50 is reported as 0.22 nM and the “intrinsic activity as compared with Isoproterenol” value [1] is reported as 94%.

`CS(=O)(=O)Nc1cccc([C@@H](O)CNCCOc2ccc3c(c2)[nH]c2cc(NS(C)(=O)=O)ccc23)c1` [Example 35, (R)-N-[3-[1-hydroxy-2-[2-(7-N′-methylsulfonylamino-9H-carbazol-2-yloxy)ethylamino]ethyl]phenyl]methanesulfonamide Hydrochloride] showed an EC50 of 0.16 nM and an Emax [1] of 96%.

With `COCCOc1ccc2c(c1)[nH]c1cc(OCCNC[C@H](O)c3cccc(NS(C)(=O)=O)c3)ccc12` [Example 43, (R)-N-[3-[1-hydroxy-2-[2-[7-(2-methoxyethoxy)-9H-carbazol-2-yloxy]ethylamino]ethyl]phenyl]methanesulfonamide Hydrochloride] the EC50 was 0.69 nM and the Emax [1] was 114%.

`CS(=O)(=O)Nc1cccc([C@@H](O)CNCCOc2ccc3c(c2)[nH]c2cc(OCC(=O)O)ccc23)c1` [Example 45, (R)-N-[3-[2-[2-(7-hydroxycarbonylmethoxy-9H-carbazol-2-yloxy)ethylamino]-1-hydroxyethyl]phenyl]methanesulfonamide] gave an EC50 of 2.6 nM and an Emax [1] of 114%.
